Experimental findings from patent US9695151B2, “3,4-dihydro-2H-isoquinoline-1-one and 2,3-dihydro-isoindol-1-one compounds” (Hoffmann-La Roche Inc., priority 2013, dated 2017) are described below.

pEC50: −log10 of the molar value.

Assay [1] addresses human CYP11B1 (Homo sapiens (Human), UniProt P15538). Nature of the assay: G-402 cellular enzyme assay, human CYP11B1 (cortisol release). In kind it is cell-based. Particulars: G-402 cells, 1 μM Deoxycortisol. An excerpt:
(§1) Herein we identified the use of the G-402 cell line as a host cell to ectopically express (transiently or stably) enzymes of the CYP11 family. Specifically we developed stable G-402 cells expressing ectopically human CYP11B1, human CYP11B2, human CYP11A1, cynmolgus CYP11B1 or cynomolgus CYP11B2 enzyme activity. Importantly the identified cell line G-402 expresses co-factors (adrenodoxin and adrenodoxin reductase) important for the activity of the CYP11 family and no relevant enzyme activity of the CYP11 family (in comparison to H295R cells) was detected in these cells. Therefore the G-402 cell line is uniquely suited as a host cell for the ectopic expression of enzymes from the CYP11 family.
(§2) G-402 cells can be obtained from ATCC (CRL-1440) and were originally derived from a renal leiomyoblastoma.
(§3) The expression plasmids contains the ORF for either human/cyno CYP11B1 or CYP11B2 under the control of a suitable promoter (CMV-promoter) and a suitable resistance marker (neomycin). Using standard techniques the expression plasmid is transfected into G-402 cells and these cells are then selected for expressing the given resistance markers. Individual cell-clones are then selected and assessed for displaying the desired enzymatic activity using 11-Deoxycorticosterone (Cyp11B2) or 11-Deoxycortisol (Cyp11B1) as a substrate.
(§4) G-402 cells expressing CYP11 constructs were established as described above and maintained in McCoy's 5a Medium Modified, ATCC Catalog No. 30-2007 containing 10% FCS and 400 μg/ml G418 (Geneticin) at 37° C. under an atmosphere of 5% CO2/95% air. Cellular enzyme assays were performed in DMEM/F12 medium containing 2.5% charcoal treated FCS and appropriate concentration of substrate (0.3-10 uM 11-Deoxycorticosterone, 11-Deoxycortisol or Corticosterone). For assaying enzymatic activity, cells were plated onto 96 well plates and incubated for 16 h. An aliquot of the supernatant is then transferred and analyzed for the concentration of the expected product (Aldosterone for CYP11B2; Cortisol for CYP11B1). The concentrations of these steroids can be determined using HTRF assays from CisBio analyzing either Aldosterone or Cortisol.
(§5) Inhibition of the release of produced steroids can be used as a measure of the respective enzyme inhibition by test compounds added during the cellular enzyme assay. The dose dependent inhibition of enzymatic activity by a compound is calculated by means of plotting added inhibitor concentrations (x-axes) vs. measured steroid/product level (y-axes). The inhibition is then calculated by fitting the following 4-parameter sigmoidal function (Morgan-Mercer-Flodin (MMF) model) to the raw data points using the least squares method:
(§6) [formula] wherein, A is the maximum y value, B is the EC50 factor determined using XLFit, C is the minimum y value and D is the slope value.
(§7) EC50 values for compounds claimed herein were tested with the G402-based assay system described. Cyp11B2 enzyme activity was tested in presence of 1 μM Deoxycorticosterone and variable amounts of inhibitors; Cyp11B1 enzyme activity was tested in presence of 1 μM Deoxycortisol and variable amounts of inhibitors.

For assay [2], the target named is CYP11B2 (Homo sapiens (Human), UniProt P19099). Description: G-402 cellular enzyme assay, human CYP11B2 (aldosterone release). In kind it is cell-based. Particulars: G-402 cells, 1 μM Deoxycorticosterone.
Description: as §1, §2, §3, §4, §5, §6, §7

CYP11B2, sequence (P19099 25-503): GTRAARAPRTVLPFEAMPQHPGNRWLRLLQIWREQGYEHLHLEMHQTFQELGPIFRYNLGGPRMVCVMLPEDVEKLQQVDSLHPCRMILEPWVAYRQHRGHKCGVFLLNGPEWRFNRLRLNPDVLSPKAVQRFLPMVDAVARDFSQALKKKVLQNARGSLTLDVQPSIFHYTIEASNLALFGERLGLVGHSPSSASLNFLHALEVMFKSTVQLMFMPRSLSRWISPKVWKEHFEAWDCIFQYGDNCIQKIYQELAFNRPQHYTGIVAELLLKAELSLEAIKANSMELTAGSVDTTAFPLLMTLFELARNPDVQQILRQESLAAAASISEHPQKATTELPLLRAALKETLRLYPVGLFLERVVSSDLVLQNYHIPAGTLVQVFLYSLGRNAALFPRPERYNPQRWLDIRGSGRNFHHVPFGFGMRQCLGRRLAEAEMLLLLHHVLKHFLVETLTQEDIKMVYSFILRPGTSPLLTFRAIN
human CYP11B1, sequence (P15538 25-503): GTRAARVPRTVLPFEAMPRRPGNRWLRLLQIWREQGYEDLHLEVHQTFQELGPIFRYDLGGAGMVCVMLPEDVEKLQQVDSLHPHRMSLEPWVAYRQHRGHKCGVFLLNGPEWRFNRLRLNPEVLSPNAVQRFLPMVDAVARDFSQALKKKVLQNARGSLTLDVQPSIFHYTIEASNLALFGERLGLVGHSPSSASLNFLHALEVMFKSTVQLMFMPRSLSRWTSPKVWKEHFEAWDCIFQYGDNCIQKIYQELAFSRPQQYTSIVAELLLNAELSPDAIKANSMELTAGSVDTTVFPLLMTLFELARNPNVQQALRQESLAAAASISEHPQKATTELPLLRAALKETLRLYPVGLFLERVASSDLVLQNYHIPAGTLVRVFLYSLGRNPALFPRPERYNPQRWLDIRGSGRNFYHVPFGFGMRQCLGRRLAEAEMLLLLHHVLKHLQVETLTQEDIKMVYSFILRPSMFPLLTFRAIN

What is called pEC50 is −log10 of the EC50, conventionally taken in molar units. Lower therefore signals a large EC50. Regarding `CC(C)S(=O)(=O)N1CCC(N(C)c2cncc(N3C(=O)c4ccc(Cl)cc4C3(C)C)c2)C1` (single isomer, unassigned) [Example 15, 5-Chloro-3,3-dimethyl-2-[5-[methyl-[(3S or 3R)-1-propan-2-ylsulfonylpyrrolidin-3-yl]amino]pyridin-3-yl]isoindol-1-one], the pEC50 in assay [1] was 6.14; in assay [2], 9.00.
On to `CC(C)S(=O)(=O)N1CCC(N(C)c2cncc(N3C(=O)c4ccc(Cl)cc4C3(C)C)c2)C1` (single isomer, unassigned) [Example 16, 5-Chloro-3,3-dimethyl-2-[5-[methyl-[(3R or 3S)-1-propan-2-ylsulfonylpyrrolidin-3-yl]amino]pyridin-3-yl]isoindol-1-one], for which the results for the pEC50 in assay [1] and in assay [2] were 6.93 and 9.30, respectively.
With `CCCS(=O)(=O)N1CCC(N(C)c2cncc(N3C(=O)c4ccc(Cl)cc4C3(C)C)c2)C1` (single isomer, unassigned) [Example 17, 5-Chloro-3,3-dimethyl-2-[5-[methyl-[(3S or 3R)-1-propylsulfonylpyrrolidin-3-yl]amino]pyridin-3-yl]isoindol-1-one], the values for the negative logarithm of the EC50 (pEC50) in assay [1] and in assay [2] were 6.89 and 9.00, respectively.
`CCCS(=O)(=O)N1CCC(N(C)c2cncc(N3C(=O)c4ccc(Cl)cc4C3(C)C)c2)C1` (single isomer, unassigned) [Example 18, 5-Chloro-3,3-dimethyl-2-[5-[methyl-[(3R or 3S)-1-propylsulfonylpyrrolidin-3-yl]amino]pyridin-3-yl]isoindol-1-one]: the negative logarithm of the EC50 (pEC50) in assay [1] was 6.63; in assay [2], 9.00.
Regarding `CC1(C)c2cc(Cl)ccc2C(=O)N1c1cncc(NC2CCCN(S(C)(=O)=O)C2)c1` (single isomer, unassigned) [Example 22, 5-Chloro-3,3-dimethyl-2-[5-[[(3R or 3S)-1-methylsulfonylpiperidin-3-yl]amino]pyridin-3-yl]isoindol-1-one], the results for the pEC50 in assay [1] and in assay [2] were 4.56 and 6.83, respectively.
The like results for `CC1(C)c2cc(Cl)ccc2C(=O)N1c1cncc(NC2CCCN(S(C)(=O)=O)C2)c1` (single isomer, unassigned) [Example 23, 5-Chloro-3,3-dimethyl-2-[5-[[(3S or 3R)-1-methylsulfonylpiperidin-3-yl]amino]pyridin-3-yl]isoindol-1-one] were, in that order, 4.74 and 5.92.
In the case of `CCS(=O)(=O)N1CCCC(Nc2cncc(N3C(=O)c4ccc(Cl)cc4C3(C)C)c2)C1` (single isomer, unassigned) [Example 24, 5-Chloro-2-[5-[[(3R or 3S)-1-ethylsulfonylpiperidin-3-yl]amino]pyridin-3-yl]-3,3-dimethylisoindol-1-one], the pEC50 in assay [1] was 4.42; in assay [2], 6.45.
For `CCS(=O)(=O)N1CCCC(Nc2cncc(N3C(=O)c4ccc(Cl)cc4C3(C)C)c2)C1` (single isomer, unassigned) [Example 25, 5-Chloro-2-[5-[[(3S or 3R)-1-ethylsulfonylpiperidin-3-yl]amino]pyridin-3-yl]-3,3-dimethylisoindol-1-one] the same measures were 4.86 and 6.35.
With `CC(C)S(=O)(=O)N1CCCC(Nc2cncc(N3C(=O)c4ccc(Cl)cc4C3(C)C)c2)C1` (single isomer, unassigned) [Example 26, 5-Chloro-3,3-dimethyl-2-[5-[[(3R or 3S)-1-propan-2-ylsulfonylpiperidin-3-yl]amino]pyridin-3-yl]isoindol-1-one], the pEC50 was less than 4.52 in assay [1] and 5.63 in assay [2].
For the compound `CC(C)S(=O)(=O)N1CCCC(Nc2cncc(N3C(=O)c4ccc(Cl)cc4C3(C)C)c2)C1` (single isomer, unassigned) [Example 27, 5-Chloro-3,3-dimethyl-2-[5-[[(3S or 3R)-1-propan-2-ylsulfonylpiperidin-3-yl]amino]pyridin-3-yl]isoindol-1-one], the negative-log EC50 (pEC50) in assay [1] is less than 4.52; in assay [2], 5.82.
